Results from patent US12459951B2, “Compounds that interact with RAS superfamily proteins for treatment of cancers, inflammatory diseases, rasopathies, and fibrotic disease” (SHY Therapeutics, LLC, priority 2022, dated 2025).

Assays:
TNF-alpha = TNF-alpha Quantification Assay (ELISA), LPS-stimulated RAW 264.7; assay type: cell-based; settings: Mus musculus, RAW264.7; at 10 μM; read-out: TNFα: % inh.
IL6 = experiment: IL-6 Quantification Assay (ELISA), LPS-stimulated RAW 264.7; assay type: cell-based; design: inhibition: dose or concentration left out as unconfirmed; settings: Mus musculus, RAW264.7, read-out: IL-6: % inh.
Akt phosphorylation = experiment: Akt Phosphorylation Assay (western blot), Panc-1; assay type: cell-based, human; settings: at 10 μM, * = activation
Method in brief: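 Panc-1 (KRas G12D) cells were treated with compound at 10 μM final (0.3% DMSO) for 6 h at 37 °C, or with serial dilutions for IC50. Cells were either serum-starved overnight in 0.5% FBS and then stimulated with 1.5 ng/ml EGF for 15 min, or kept in 10% FBS without stimulation. Akt Ser473 phosphorylation in lysates was read by western blot.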

KRas G12C mutant = experiment: Ras GTP Binding Domain Inhibition Assay (Ras Superfamily Assay); settings: 20 μM compound; for KRas G12C mutant + SOS: % inh.: with SOS; for KRas G12C mutant: % inh.: without SOS
Method in brief: (§1)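 His-tagged GTPases immobilised on nickel-coated plates, pre-incubated with compound (20 μM single point, or serial dilution for IC50) 3 h at room temperature, with or without 10-30 μg/mL Sos (residues 556-1049) in the final hour. Bound Cy3- or Cy5-GTP (100 nM, 45 min) measured by fluorescence after washing.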

Rho-A = target: T1, Rho-A (Homo sapiens, UniProt P61586); experiment: as above; settings: read-out: Rho-A: % inh..
T1 construct: made in house
T1 sequence (P61586 whole entry): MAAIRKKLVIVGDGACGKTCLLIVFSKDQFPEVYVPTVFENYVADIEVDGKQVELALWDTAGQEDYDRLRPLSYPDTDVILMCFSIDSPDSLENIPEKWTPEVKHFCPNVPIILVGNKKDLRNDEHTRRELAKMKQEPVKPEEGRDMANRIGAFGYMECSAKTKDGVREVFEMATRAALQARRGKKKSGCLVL
Method in brief: as §1

Rac-1 = target: T2, Rac-1 (Homo sapiens, UniProt P63000); experiment: as above; settings: read-out: Rac-1: % inh.
T2 construct: made in house
Method in brief: as §1

KRas wild type = experiment: as above; settings: 20 μM compound; for KRas wild type + SOS: % inh.: with SOS; for KRas wild type: % inh.: without SOS
Method in brief: as §1

KRas Q61H mutant = experiment: as above; settings: 20 μM compound; for KRas Q61H mutant + SOS: % inh.: with SOS; for KRas Q61H mutant: % inh.: without SOS
Method in brief: as §1

KRas G12D mutant = experiment: as above; settings: 20 μM compound; for KRas G12D mutant + SOS: % inh.: with SOS; for KRas G12D mutant: % inh.: without SOS
Method in brief: as §1

| SMILES | inhibition at 10 µM (TNF-alpha) [%] | inhibition (IL6) [%] | % inh of Akt phosphorylation in Panc-1 (Akt phosphorylation) | KRas G12C mutant + SOS: % inh. (KRas G12C mutant) | KRas G12C mutant: % inh. (KRas G12C mutant) | inhibition at 20 µM (Rho-A) [%] | inhibition at 20 µM (Rac-1) [%] | KRas wild type + SOS: % inh. (KRas wild type) | KRas wild type: % inh. (KRas wild type) | KRas Q61H mutant + SOS: % inh. (KRas Q61H mutant) | KRas Q61H mutant: % inh. (KRas Q61H mutant) | KRas G12D mutant + SOS: % inh. (KRas G12D mutant) | KRas G12D mutant: % inh. (KRas G12D mutant) | inhibition at 10 µM (IL6; at 10 μM) [%] |
| --- | --- | --- | --- | --- | --- | --- | --- | --- | --- | --- | --- | --- | --- | --- |
| COCCO[C@H]1C[C@H](Nc2nc(-c3nccn3C)nn3cc(-c4cccc(OC)c4F)c(-c4ccccc4)c23)C1 [Compound 44, 6-(2-Fluoro-3-methoxyphenyl)-N-((1r,3r)-3-(2-methoxyethoxy)cyclobutyl)-2-(1-methyl-1H-imidazol-2-yl)-5-phenylpyrrolo[2,1-f][1,2,4]triazin-4-amine] | 1 to 24 | 25 to 49 | B (26-49% inhibition) | B (B = 26-49% inhibition) | 0 (0 = 0% inhibition) | 1 to 25 | 26 to 49 | B (B = 26-49% inhibition) | 0 (0 = 0% inhibition) | D (D = 76-100% inhibition) | D (D = 76-100% inhibition) | C (C = 50-75% inhibition) | B (B = 26-49% inhibition) | – |
| COc1cccc(-c2cn3nc(-c4nccn4C)nc(N[C@H]4C[C@H](OC)C4)c3c2-c2ccccc2)c1Cl [Compound 32, 6-(2-Chloro-3-methoxyphenyl)-N-((1r,3r)-3-methoxycyclobutyl)-2-(1-methyl-1H-imidazol-2-yl)-5-phenylpyrrolo[2,1-f][1,2,4]triazin-4-amine] | 75 to 100 | 75 to 100 | D (85-100% inhibition) | 0 (0 = 0% inhibition) | 0 (0 = 0% inhibition) | 1 to 25 | 0 | 0 (0 = 0% inhibition) | A (A = 1-25% inhibition) | A (A = 1-25% inhibition) | A (A = 1-25% inhibition) | 0 (0 = 0% inhibition) | 0 (0 = 0% inhibition) | – |
| COc1ccc(Nc2nc(-c3nccn3C)nn3cc(-c4ccn(C(C)C)n4)c(C)c23)cn1 [Compound 71, 6-(1-Isopropyl-1H-pyrazol-3-yl)-N-(6-methoxypyridin-3-yl)-5-methyl-2-(1-methyl-1H-imidazol-2-yl)pyrrolo[2,1-f][1,2,4]triazin-4-amine] | 0 | 0 | D* (85-100% activation) | A (A = 1-25% inhibition) | 0 (0 = 0% inhibition) | 1 to 25 | 1 to 25 | A (A = 1-25% inhibition) | 0 (0 = 0% inhibition) | 0 (0 = 0% inhibition) | 0 (0 = 0% inhibition) | A (A = 1-25% inhibition) | A (A = 1-25% inhibition) | – |
| COc1ccnc(Nc2nc(-c3nccn3C)nn3cc(-c4ccn(C(C)C)n4)c(C)c23)c1 [Compound 58, 6-(1-Isopropyl-1H-pyrazol-3-yl)-N-(4-methoxypyridin-2-yl)-5-methyl-2-(1-methyl-1H-imidazol-2-yl)pyrrolo[2,1-f][1,2,4]triazin-4-amine] | 1 to 24 | 25 to 49 | A* (1-25% activation) | C (C = 50-75% inhibition) | D (D = 76-100% inhibition) | 76 to 100 | 76 to 100 | D (D = 76-100% inhibition) | D (D = 76-100% inhibition) | D (D = 76-100% inhibition) | C (C = 50-75% inhibition) | D (D = 76-100% inhibition) | D (D = 76-100% inhibition) | – |
| COc1cccc(-c2cn3nc(-c4nccn4C)nc(N[C@H]4C[C@H](OC)C4)c3c2-c2ccn(C)n2)c1F [Compound 47, 6-(2-Fluoro-3-methoxyphenyl)-N-((1r,3r)-3-methoxycyclobutyl)-2-(1-methyl-1H-imidazol-2-yl)-5-(1-methyl-1H-pyrazol-3-yl)pyrrolo[2,1-f][1,2,4]triazin-4-amine] | 1 to 24 | 0 | C* (46-84% activation) | 0 (0 = 0% inhibition) | 0 (0 = 0% inhibition) | 1 to 25 | 0 | 0 (0 = 0% inhibition) | 0 (0 = 0% inhibition) | A (A = 1-25% inhibition) | A (A = 1-25% inhibition) | A (A = 1-25% inhibition) | A (A = 1-25% inhibition) | – |
| COc1cccc(Nc2nc(-c3nccn3C)nn3cc(-c4ccn(C(C)C)n4)c(-c4ccccc4)c23)n1 [Compound 23, 6-(1-Isopropyl-1H-pyrazol-3-yl)-N-(6-methoxypyridin-2-yl)-2-(1-methyl-1H-imidazol-2-yl)-5-phenylpyrrolo[2,1-f][1,2,4]triazin-4-amine] | 75 to 100 | 75 to 100 | D (85-100% inhibition) | 0 (0 = 0% inhibition) | A (A = 1-25% inhibition) | 1 to 25 | 1 to 25 | A (A = 1-25% inhibition) | 0 (0 = 0% inhibition) | 0 (0 = 0% inhibition) | A (A = 1-25% inhibition) | 0 (0 = 0% inhibition) | A (A = 1-25% inhibition) | – |
| COc1cccc(-c2cn3nc(-c4nccn4C)nc(N[C@H]4C[C@H](OC)C4)c3c2-c2ccccn2)c1F [Compound 45, 6-(2-Fluoro-3-methoxyphenyl)-N-((1r,3r)-3-methoxycyclobutyl)-2-(1-methyl-1H-imidazol-2-yl)-5-(pyridin-2-yl)pyrrolo[2,1-f][1,2,4]triazin-4-amine] | 75 to 100 | – | 0 (0% inhibition) | A (A = 1-25% inhibition) | B (B = 26-49% inhibition) | 50 to 75 | 50 to 75 | B (B = 26-49% inhibition) | B (B = 26-49% inhibition) | D (D = 76-100% inhibition) | D (D = 76-100% inhibition) | A (A = 1-25% inhibition) | B (B = 26-49% inhibition) | 75 to 100 |
| COc1cc(Nc2nc(-c3nccn3C)nn3cc(-c4ccn(C)n4)c(C)c23)ncn1 [Compound 63, N-(6-Methoxypyrimidin-4-yl)-5-methyl-2-(1-methyl-1H-imidazol-2-yl)-6-(1-methyl-1H-pyrazol-3-yl)pyrrolo[2,1-f][1,2,4]triazin-4-amine] | 1 to 24 | 1 to 24 | D* (85-100% activation) | C (C = 50-75% inhibition) | D (D = 76-100% inhibition) | 76 to 100 | 76 to 100 | D (D = 76-100% inhibition) | D (D = 76-100% inhibition) | D (D = 76-100% inhibition) | D (D = 76-100% inhibition) | D (D = 76-100% inhibition) | D (D = 76-100% inhibition) | – |
| Cc1c(-c2ccn(C(C)C)n2)cn2nc(-c3nccn3C)nc(Nc3ccn(C(C)C)n3)c12 [Compound 72, N,6-bis(1-Isopropyl-1H-pyrazol-3-yl)-5-methyl-2-(1-methyl-1H-imidazol-2-yl)pyrrolo[2,1-f][1,2,4]triazin-4-amine] | 1 to 24 | 50 to 74 | D* (85-100% activation) | C (C = 50-75% inhibition) | C (C = 50-75% inhibition) | 76 to 100 | 76 to 100 | C (C = 50-75% inhibition) | C (C = 50-75% inhibition) | D (D = 76-100% inhibition) | C (C = 50-75% inhibition) | D (D = 76-100% inhibition) | D (D = 76-100% inhibition) | – |
